Test results published in patent US8546537B2, “Streptavidin having low immunogenicity and use thereof” (The University of Tokyo, priority 2009, dated 2013).

Assays:
[1] = background art; cited from earlier work
[2] = Kinetics analysis of interaction between streptavidin protein and biotin using Biacore biosensor; type: binding; details: for Kd: Biacore 3000, obtained from kd/ka, read-out: Dissociation constant Kd
Description: As a ligand (a substance to be attached to a sensor chip) used for a Biacore (registered trademark) biosensor, an anti-mouse IgG antibody (manufactured by GE Healthcare Biosciences) was used. On the other hand, as analytes (substances to be supplied to the flow channel system), a biotinylated mouse antibody and various types of mutant streptavidins were prepared, and intermolecular interaction was then analyzed using Biacore (registered trademark) 3000 (a biosensor based on the principle of surface plasmon resonance; manufactured by GE Healthcare Biosciences). The anti-mouse IgG antibody was immobilized on all of the flow cells of a CM5 sensor chip according to an amine coupling method. The amount of the antibody immobilized on each flow cell was 8000 RU. Subsequently, as references, non-biotinylated mouse antibodies were captured onto Flow Cells 1 and 3, and biotinylated mouse antibodies were captured onto Flow Cells 2 and 4. Various types of streptavidins were loaded in a running buffer (HBS-EP; manufactured by GE Healthcare Biosciences) on Flow Cells 1 and 2, or 3 and 4, at a flow rate of 20 μl/min for 2 minutes. Thereafter, dissociation of each sample was monitored for 7 minutes. Thereafter, a reproduction operation was carried out using a 10 mM glycine-HCl buffer (pH 1.7) (manufactured by GE Healthcare Biosciences), and repeat measurement was then carried out. Using the analysis software BIAevaluation ver. 4.1, a reaction kinetics analysis was performed on a 1:1 binding model based on the obtained sensorgram, so as to calculate an association rate constant (ka) and a dissociation rate constant (kd). A dissociation constant (Kd) was obtained from kd/ka.
The results of the kinetics analysis of the intermolecular interaction of a recombinant streptavidin and a biotin, which was carried out using Biacore (registered trademark) 3000 (a biosensor based on the principle of surface plasmon resonance; manufactured by GE Healthcare Biosciences), are as shown in Table 2.

[3] = Biacore 3000, biotinylated mouse antibody captured, 1:1 binding model

Dissociation rate constant kd [2, 3]	Kd [2]	Substance	isoelectric point [1]	Association rate constant ka [2, 3]
		Avidin: basic glycoprotein derived from albumen	exceeds 10	
6.32 × 10^−5 S^−1	0.225 nM	cSA_WT: wild-type (native) core streptavidin, amino acid sequence SEQ ID NO: 2 [reference compound]	around the neutral range	2.81 × 10^5 M^−1 S^−1
7.49 × 10^−4 S^−1	3.53 nM	mcSA_W120A: streptavidin mutant named W120A in Table 2; not described further [reference compound]		
